Experimental data reported in patent US20080226565A1, “Anticariogenic Proteins & Peptides & Saccharides” (priority 2004, published 2008).

Assay: In-vivo: radiated tooth samples treated with protector, 5 days in the oral cavity, Knoop hardness
Set-up: species or system human
Conditions: for delta: change of hardness (increase of depth of penetration): radiation + 5 days in oral cavity, 0.1% fluoride or 4% bisphosphonate e-polylysine with CaCl2 and KH2PO4
From the text: A device is constructed that can contain up to 6 experimental tooth samples for positioning in the oral cavity. […] The construction of the experimental tooths samples is outlined in chapter C.2.“Results; in-vivo experiments”. In the oral cavity, the tooth samples are positioned in the device in such a way that the enamel surfaces are subjected to physical contact with the tongue and are submerged in saliva. […] In experiments where the device is residing a long time period in the oral cavity (5 days and more), a metal network is positioned just above the surface of the experimental teeth, in order to provide support for the bacteria and stimulate it's growth path. It is also possible to measure the residual protection competence by removing the tooth samples from the oral cavity at the end of the selected residence time and treating them with acid under laboratory conditions.
The device was positioned after the lower jaw in the oral cavity for a period of five days. After removal from the oral cavity, the samples where cleaned and the hardness was measured.
Tooth samples have been cut in horizontal slices (thickness: 0.3 to 1 mm) with a Leitz 1600 tooth cutter with horizontal cutting blade; the slices are cut manually (with a bore) into small tooth samples that contain a small part of the original tooth surface. The tooth sample is positioned in a small plastic tube, that has been cut from a long plastic tube with 6 mm external diameter. The length of the tube is 3 to 6 mm. The inner part of the tube is filled with a polymer that hardens under light (Photoclearfil Bright; Kuraray). The tooth sample is positioned in the soft polymer inside the tube, in such a way that the original tooth surface is just surfacing above the tube. Finally the polymer is hardened with a light source. The tooth surface is polished with Struers silicon carbid paper (800-4000) and the hardness is measured 5 times on each of the samples under the Letiz Wetzlar microscope (weight on needle: 50 p). Tooth samples with a maximum average depth of penetration of 43 μm are retained for use in the oral cavity.
Tooth samples have been subjected to a radiation dose that is equal to the amount that is given to patients with oral cancer (20 Gray) and have been sterilized. […] A drop of the solution was positioned on the tooth surface and allowed to reside for a period of 30 minutes at 37 C.; the procedure was repeated after removal of the drop with pressured air. Finally the drop was removed, the tooth was dried on air and fixed to the device. In total six tooth samples have been fixed to the device and positioned in the oral cavity after the lower jaw. It remained in the oral cavity for a period of 5 days (day and night). After completion of the required residence time, the device was removed from the oral cavity and the experimental teeth where separated from the device and washed. The hardness was measured according to the Knoop method, six times on each of the tooth samples.
B: the stage at which the hardness of the tooth surface has been measured with the Knoop method. (before the treatment; after radiation and before addition of protector formulation to the surface; after addition of protector to the surface of the tooth and after residing five days in the oral cavity).
B: the stage at which the hardness of the tooth surface has been measured with the Knoop method.

bisphosphonylated epsilon-polylysine [bisphosphonylated e-polylysine]
Mean hardness (depth of penetration) (after protector and 5 days oral cavity, 0.1% NaF or 4% bisphosphonate e-polylysine with CaCl2 and KH2PO4): 41.97 μm | Mean hardness (depth of penetration) (after radiation, before addition of protector (baseline of group)): 41.02 μm | delta: change of hardness (after radiation, before addition of the formulation): 0.15 μm | delta: change of hardness (increase of depth of penetration) (listed as bisphosphonate e-polylysine): 1.10 μm | delta: change of hardness (increase of depth of penetration) (listed as bisphosphonylated epsilon-polylysine): 1.1 μm | Mean hardness (depth of penetration) (start, before treatment (baseline of group)): 40.87 μm
